In PMC8207662, “Divergent camptothecin biosynthetic pathway in Ophiorrhiza pumila” (BMC Biology, 2021):
Numbering of substitutions follows the chain as printed.

Experiments:
CaSTR3 = biological target: T1, CaSTR3 (Camptotheca acuminata, UniProt A0A8F2YIV8); assay: LC-MS of strictosidine formation; assay type: biochemical; conditions: tryptamine co-substrate
T1 construct: gene STR3; recombinant from pET30a in E. coli BL21(DE3), Ni resin purified
T1 sequence (A0A8F2YIV8 31-330): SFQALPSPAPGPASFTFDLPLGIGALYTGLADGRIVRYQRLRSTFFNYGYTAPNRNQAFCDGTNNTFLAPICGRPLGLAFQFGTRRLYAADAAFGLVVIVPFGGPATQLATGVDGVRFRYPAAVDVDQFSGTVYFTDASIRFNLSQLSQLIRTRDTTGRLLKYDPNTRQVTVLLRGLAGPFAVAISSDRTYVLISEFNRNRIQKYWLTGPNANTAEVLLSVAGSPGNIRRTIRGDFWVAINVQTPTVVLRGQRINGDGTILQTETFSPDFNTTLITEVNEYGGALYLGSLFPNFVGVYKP

CaSTR1 = biological target: T2, CaSTR1 (Camptotheca acuminata, UniProt A0A8F2YIY3); assay: LC-MS of strictosidine formation; assay type: biochemical; conditions: tryptamine co-substrate
T2 construct: gene STR1; recombinant from pET30a in E. coli BL21(DE3), Ni resin purified
T2 sequence (A0A8F2YIY3 73-370): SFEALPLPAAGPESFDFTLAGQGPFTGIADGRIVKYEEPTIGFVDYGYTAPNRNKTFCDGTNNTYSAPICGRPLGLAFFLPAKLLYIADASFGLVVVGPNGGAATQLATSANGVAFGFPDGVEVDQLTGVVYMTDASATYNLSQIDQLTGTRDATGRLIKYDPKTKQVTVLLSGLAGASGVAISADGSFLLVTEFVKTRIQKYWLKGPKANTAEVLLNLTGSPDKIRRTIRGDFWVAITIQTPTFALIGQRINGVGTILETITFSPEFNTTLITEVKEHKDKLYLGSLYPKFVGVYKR

CaSTR2 [1] = biological target: T3, CaSTR2 (Camptotheca acuminata, UniProt A0A8F2YJ04); assay: LC-MS of strictosidine formation; assay type: biochemical; conditions: tryptamine co-substrate
T3 construct: gene STR2; recombinant from pET30a in E. coli BL21(DE3), Ni resin purified
T3 sequence (A0A8F2YJ04 32-329): T2 sequence (A0A8F2YIY3 73-370) with P39S, S66L, S91G, A185V, I238V, I240V, H279Y

OpSLS4 = biological target: T4, OpSLS4 (Ophiorrhiza pumila, UniProt A0A8F3BRW9); assay: yeast microsome assay, HPLC of secologanin; assay type: biochemical; conditions: 1 mM NADPH; 30 °C
T4 construct: gene SLS4; expressed from pESC-Leu in yeast WAT11, microsomes

OpSLS1 = biological target: T5, OpSLS1 (Ophiorrhiza pumila, UniProt A0A8F2YIW0); assay: yeast microsome assay, HPLC of secologanin; assay type: biochemical; conditions: 1 mM NADPH; 30 °C
T5 construct: gene SLS1; expressed from pESC-Leu in yeast WAT11, microsomes
T5 sequence (A0A8F2YIW0 1-522): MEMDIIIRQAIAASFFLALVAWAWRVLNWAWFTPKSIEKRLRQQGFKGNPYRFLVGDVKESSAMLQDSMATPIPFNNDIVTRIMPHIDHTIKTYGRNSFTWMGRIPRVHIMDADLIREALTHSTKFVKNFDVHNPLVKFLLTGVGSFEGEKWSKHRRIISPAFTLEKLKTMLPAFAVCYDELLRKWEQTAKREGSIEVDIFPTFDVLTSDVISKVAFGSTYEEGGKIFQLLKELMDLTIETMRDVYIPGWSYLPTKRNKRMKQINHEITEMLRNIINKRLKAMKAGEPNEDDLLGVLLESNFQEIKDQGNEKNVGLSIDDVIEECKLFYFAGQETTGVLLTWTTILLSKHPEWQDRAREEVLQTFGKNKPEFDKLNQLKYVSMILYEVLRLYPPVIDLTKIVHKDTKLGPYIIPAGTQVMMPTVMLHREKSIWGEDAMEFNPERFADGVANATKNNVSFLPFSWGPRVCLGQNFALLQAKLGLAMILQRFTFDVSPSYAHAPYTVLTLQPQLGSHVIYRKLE

OpSLS3 = biological target: T6, OpSLS3 (Ophiorrhiza pumila, UniProt A0A8F3BRG6); assay: yeast microsome assay, HPLC of secologanin; assay type: biochemical; conditions: 1 mM NADPH; 30 °C
T6 construct: gene SLS3; expressed from pESC-Leu in yeast WAT11, microsomes
T6 sequence (A0A8F3BRG6 1-521): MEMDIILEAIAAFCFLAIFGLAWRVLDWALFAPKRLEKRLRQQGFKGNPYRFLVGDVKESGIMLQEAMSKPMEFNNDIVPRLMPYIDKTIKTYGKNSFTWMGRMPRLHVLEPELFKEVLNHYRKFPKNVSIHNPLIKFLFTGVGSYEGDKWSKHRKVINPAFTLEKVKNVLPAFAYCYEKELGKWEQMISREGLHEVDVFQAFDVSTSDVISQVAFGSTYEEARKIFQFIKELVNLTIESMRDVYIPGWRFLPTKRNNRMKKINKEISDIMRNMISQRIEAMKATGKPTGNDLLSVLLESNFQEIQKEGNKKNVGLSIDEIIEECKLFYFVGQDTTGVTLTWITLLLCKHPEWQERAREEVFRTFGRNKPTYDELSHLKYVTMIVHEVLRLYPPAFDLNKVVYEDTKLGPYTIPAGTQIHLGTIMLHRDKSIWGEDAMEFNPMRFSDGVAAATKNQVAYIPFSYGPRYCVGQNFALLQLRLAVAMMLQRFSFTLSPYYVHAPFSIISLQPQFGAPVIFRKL

OpSLS5 = biological target: T7, OpSLS5 (Ophiorrhiza pumila, UniProt A0A8F3BPP9); assay: yeast microsome assay, HPLC of secologanin; assay type: biochemical; conditions: 1 mM NADPH; 30 °C
T7 construct: gene SLS5; expressed from pESC-Leu in yeast WAT11, microsomes
T7 sequence (A0A8F3BPP9 1-521): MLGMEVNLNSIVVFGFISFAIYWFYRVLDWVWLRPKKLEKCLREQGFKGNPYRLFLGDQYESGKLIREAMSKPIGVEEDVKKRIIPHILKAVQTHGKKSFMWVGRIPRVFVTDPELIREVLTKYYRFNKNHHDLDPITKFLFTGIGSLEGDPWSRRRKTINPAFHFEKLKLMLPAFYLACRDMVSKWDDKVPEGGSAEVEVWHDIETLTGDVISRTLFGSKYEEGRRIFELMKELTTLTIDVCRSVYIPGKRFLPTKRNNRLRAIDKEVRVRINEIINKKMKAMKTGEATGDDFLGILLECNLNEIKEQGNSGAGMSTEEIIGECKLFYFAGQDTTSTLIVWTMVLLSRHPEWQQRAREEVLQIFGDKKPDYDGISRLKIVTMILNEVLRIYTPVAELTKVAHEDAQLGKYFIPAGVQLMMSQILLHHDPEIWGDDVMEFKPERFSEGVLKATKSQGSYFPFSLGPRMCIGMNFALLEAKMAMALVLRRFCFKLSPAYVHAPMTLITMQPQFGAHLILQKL

OpSLS6 = biological target: T8, OpSLS6 (Ophiorrhiza pumila, UniProt A0A8F3BQ54); assay: yeast microsome assay, HPLC of secologanin; assay type: biochemical; conditions: 1 mM NADPH; 30 °C
T8 construct: gene SLS6; expressed from pESC-Leu in yeast WAT11, microsomes
T8 sequence (A0A8F3BQ54 1-516): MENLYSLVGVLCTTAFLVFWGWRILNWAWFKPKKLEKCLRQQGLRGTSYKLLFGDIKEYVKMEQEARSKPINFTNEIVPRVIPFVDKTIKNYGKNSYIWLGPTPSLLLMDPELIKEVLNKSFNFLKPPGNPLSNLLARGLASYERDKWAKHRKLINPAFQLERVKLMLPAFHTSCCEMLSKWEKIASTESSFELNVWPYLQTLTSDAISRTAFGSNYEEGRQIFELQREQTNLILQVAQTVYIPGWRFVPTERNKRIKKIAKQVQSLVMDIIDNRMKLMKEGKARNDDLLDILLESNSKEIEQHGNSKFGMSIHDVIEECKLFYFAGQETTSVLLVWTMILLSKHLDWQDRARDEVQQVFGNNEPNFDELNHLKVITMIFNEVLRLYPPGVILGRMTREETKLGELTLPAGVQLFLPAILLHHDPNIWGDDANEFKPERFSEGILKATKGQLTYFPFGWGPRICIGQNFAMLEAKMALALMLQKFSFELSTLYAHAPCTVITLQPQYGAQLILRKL

OpLAMT [2] = biological target: T9, OpLAMT (Ophiorrhiza pumila, UniProt A0A8F2YIU9); assay: HPLC assay, loganin formation; assay type: biochemical; conditions: 1 mM SAM; pH 7.5; 30 °C
T9 construct: gene LAMT; recombinant from pET-30a in E. coli BL21(DE3), Ni resin purified
T9 sequence (A0A8F2YIU9 1-381): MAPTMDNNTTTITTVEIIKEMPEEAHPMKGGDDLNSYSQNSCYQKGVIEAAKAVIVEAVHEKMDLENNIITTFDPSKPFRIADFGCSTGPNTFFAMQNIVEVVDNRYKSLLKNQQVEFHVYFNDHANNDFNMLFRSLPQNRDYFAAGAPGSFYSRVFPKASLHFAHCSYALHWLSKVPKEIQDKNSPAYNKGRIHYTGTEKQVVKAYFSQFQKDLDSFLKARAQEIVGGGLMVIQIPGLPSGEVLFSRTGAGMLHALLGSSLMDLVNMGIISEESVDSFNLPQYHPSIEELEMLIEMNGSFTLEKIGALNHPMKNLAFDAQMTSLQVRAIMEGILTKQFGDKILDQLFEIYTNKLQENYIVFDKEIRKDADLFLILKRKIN

OpLAMT [3] = biological target: T9, OpLAMT; assay: assay of secologanin formation, printed as microsome assay with recombinant OpLAMT; assay type: biochemical; conditions: SAM
CaSTR2 [4] = biological target: T3, CaSTR2; assay: LC-MS of strictosidinic acid formation; assay type: biochemical; conditions: tryptamine co-substrate
[5] = substrate: C=C[C@H]1[C@H](O[C@@H]2O[C@H](CO)[C@@H](O)[C@H](O)[C@H]2O)OC=C(C(=O)OC)[C@H]1CC=O; assay: LC-MS of strictosidine formation; assay type: biochemical, Ophiorrhiza pumila; conditions: tryptamine co-substrate
Source text: LC-MS of strictosidine formation on OpSTR | we furtherly characterized the kinetic parameters of OpSTR using LCMS

T4 sequence (A0A8F3BRW9 1-517): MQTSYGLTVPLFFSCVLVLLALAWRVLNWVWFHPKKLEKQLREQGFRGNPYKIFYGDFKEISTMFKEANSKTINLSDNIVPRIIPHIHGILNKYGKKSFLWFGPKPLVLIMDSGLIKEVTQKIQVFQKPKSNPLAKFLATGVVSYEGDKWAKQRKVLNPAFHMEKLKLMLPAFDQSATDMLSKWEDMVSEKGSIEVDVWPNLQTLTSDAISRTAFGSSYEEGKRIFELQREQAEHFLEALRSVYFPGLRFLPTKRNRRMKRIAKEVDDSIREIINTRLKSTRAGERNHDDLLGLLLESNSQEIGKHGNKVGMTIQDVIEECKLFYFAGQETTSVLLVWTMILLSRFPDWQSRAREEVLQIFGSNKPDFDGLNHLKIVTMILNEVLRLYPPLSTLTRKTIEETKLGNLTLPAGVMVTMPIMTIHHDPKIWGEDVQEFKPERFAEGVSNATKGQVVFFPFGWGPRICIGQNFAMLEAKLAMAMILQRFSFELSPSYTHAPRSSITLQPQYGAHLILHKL

C=C[C@H]1[C@H](O[C@@H]2O[C@H](CO)[C@@H](O)[C@H](O)[C@H]2O)OC=C(C(=O)OC)[C@H]1CC=O [secologanin] was tested, and the “LC-MS of strictosidine formation” value (CaSTR3) was “NnSTR, CaSTR1, and CaSTR3 displayed substrate specificity towards secologanin only”, the “LC-MS of strictosidine formation” value (CaSTR1) was “NnSTR, CaSTR1, and CaSTR3 displayed substrate specificity towards secologanin only” and the “LC-MS of strictosidine formation” value (CaSTR2 [1]) was “OpSTR and CaSTR2 used both secologanin and secologanic acid activity as their substrates”.

For COC(=O)C1=CO[C@@H](O[C@@H]2O[C@H](CO)[C@@H](O)[C@H](O)[C@H]2O)[C@@H]2[C@@H](C)[C@@H](O)C[C@H]12 [loganin], the “yeast microsome assay, HPLC of secologanin” value (OpSLS4) was “five OpSLS proteins (OpSLS1, OpSLS3, OpSLS4, OpSLS5, OpSLS6) exhibited secologanin synthase activity”, the “yeast microsome assay, HPLC of secologanin” value (OpSLS1) was “five OpSLS proteins (OpSLS1, OpSLS3, OpSLS4, OpSLS5, OpSLS6) exhibited secologanin synthase activity” and the “yeast microsome assay, HPLC of secologanin” value (OpSLS3) was “five OpSLS proteins (OpSLS1, OpSLS3, OpSLS4, OpSLS5, OpSLS6) exhibited secologanin synthase activity”. The “yeast microsome assay, HPLC of secologanin” value (OpSLS5) was “five OpSLS proteins (OpSLS1, OpSLS3, OpSLS4, OpSLS5, OpSLS6) exhibited secologanin synthase activity” and the “yeast microsome assay, HPLC of secologanin” value (OpSLS6) was “five OpSLS proteins (OpSLS1, OpSLS3, OpSLS4, OpSLS5, OpSLS6) exhibited secologanin synthase activity”.

In the case of C[C@@H]1[C@H]2[C@H](O[C@@H]3O[C@H](CO)[C@@H](O)[C@H](O)[C@H]3O)OC=C(C(=O)O)[C@H]2C[C@@H]1O [loganic acid], the “HPLC assay, loganin formation” value (OpLAMT [2]) is reported as “The purified recombinant protein converted loganic acid and S-adenosyl methionine (SAM) into loganin”.

For C=C[C@@H]1C(CC=O)C(C(=O)O)=CO[C@H]1O[C@@H]1O[C@H](CO)[C@@H](O)[C@H](O)[C@H]1O (stereo partly drawn) [secologanic acid], the “assay of secologanin formation, printed as microsome assay with recombinant OpLA” value (OpLAMT [3]) was “a microsome assay with secologanic acid as a substrate for recombinant OpLAMT revealed methylation” and the “LC-MS of strictosidinic acid formation” value (CaSTR2 [4]) was “OpSTR and CaSTR2 used both secologanin and secologanic acid activity as their substrates”.

B1: OpSTR (Ophiorrhiza pumila) (protein)
chain: SPEFFEFIEAPSYGPNAYAFDSDGELYASVEDGRIIKYDKPSNKFLTHAVASPIWNNALCENNTNQDLKPLCGRVYDFGFHYETQRLYIADCYFGLGFVGPDGGHAIQLATSGDGVEFKWLYALAIDQQAGFVYVTDVSTKYDDRGVQDIIRINDTTGRLIKYDPSTEEVTVLMKGLNIPGGTEVSKDGSFVLVGEFASHRILKYWLKGPKANTSEFLLKVRGPGNIKRTKDGDFWVASSDNNGITVTPRGIRFDEFGNILEVVAIPLPYKGEHIEQVQEHDGALFVGSLFHEFVGILHNYKSSVDHHQEKNSGGLNASFKEFSSF
notes: recombinant from pET30a in E. coli BL21(DE3), Ni resin purified
For B1, the Km [5] was 382 ± 68.1 µM, the Vmax [5] was 0.0377 µmol/min/mg and the kcat [5] was 0.0524 s⁻¹. For the same molecule, the kcat/Km [5] was 137 M⁻¹ s⁻¹.
